According to US10472358B2, “1H-pyrrolo[2,3-c]pyridin-7(6H)-ones and pyrazolo[3,4-c]pyridin-7(6H)-ones as inhibitors of BET proteins” (Incyte Corporation, priority 2014, dated 2019):

What follows are molecules tested on KMS.12.BM cells (assay: KMS.12.BM cell viability assay (Cell Titer-GLO, ATP quantitation)). Details: KMS-12-BM, 72 h; human myeloma cells, 3 days, concentration required for 50% cell death.
Format: cell-based
Procedure: Example B1: KMS.12.BM Cell Viability Assay
KMS.12.BM cell line (human myeloma) was purchased from JCRB (Osaka, Japan) and maintained in RPMI with 10% FBS culture medium. To measure the cytotoxic activity of the compounds through ATP quantitation, the KMS.12.BM cells are plated in the RPMI culture medium at 5000 cells/well/per 100 μL into a 96-well polystyrene clear black tissue culture plate (Greiner-bio-one through VWR, NJ), in the presence or absence of a concentration range of test compounds. After 3 days, […] Cell Titer-GLO Luminescent (Promega, Madison, Wis.) cell culture agent is added to each well for 10 minutes at room temperature to stabilize the luminescent signal. This determines the number of viable cells in culture based on quantitation of the ATP present, which signals the presence of metabolically active cells. Luminescence is measured with the Top Count 384 (Packard Bioscience through Perkin Elmer, Boston, Mass.). Compound inhibition is determined relative to cells cultured with no drug and the IC50 is reported as the compound concentration required for 50% cell death.

| SMILES | IC50 [nM] |
| --- | --- |
| CC(C)C1Oc2c(-c3cn(C)c(=O)c4[nH]ccc34)cc(C(N)=O)cc2N(C)C1=O (stereo not drawn) [Example 19, 2-isopropyl-4-methyl-8-(6-methyl-7-oxo-6,7-dihydro-1H-pyrrolo[2,3-c]pyridin-4-yl)-3-oxo-3,4-dihydro-2H-1,4-benzoxazine-6-carboxamide] | ≤ 1000 |
| CNC(=O)c1cc2c(c(-c3cn(C)c(=O)c4[nH]ccc34)c1)OC(C(C)C)C(=O)N2 (stereo not drawn) [Example 20, 2-isopropyl-N-methyl-8-(6-methyl-7-oxo-6,7-dihydro-1H-pyrrolo[2,3-c]pyridin-4-yl)-3-oxo-3,4-dihydro-2H-1,4-benzoxazine-6-carboxamide] | ≤ 1000 |
| CC(C)C1Oc2c(cc([N+](=O)[O-])cc2-c2cn(C)c(=O)c3[nH]ccc23)NC1=O (stereo not drawn) [Example 21, 2-isopropyl-8-(6-methyl-7-oxo-6,7-dihydro-1H-pyrrolo[2,3-c]pyridin-4-yl)-6-nitro-2H-1,4-benzoxazin-3(4H)-one] | ≤ 1000 |
| COc1cc(-c2cn(C)c(=O)c3[nH]ccc23)c2c(c1)N(C)CC(C(C)C)O2 (stereo not drawn) [Example 22, 4-(2-isopropyl-6-methoxy-4-methyl-3,4-dihydro-2H-1,4-benzoxazin-8-yl)-6-methyl-1,6-dihydro-7H-pyrrolo[2,3-c]pyridin-7-one] | 1000 to 10000 |
| COc1cc2c(c(-c3cn(C)c(=O)c4[nH]ccc34)c1)OC(C1CC1)C(=O)N2 (stereo not drawn) [Example 23, 2-cyclopropyl-6-methoxy-8-(6-methyl-7-oxo-6,7-dihydro-1H-pyrrolo[2,3-c]pyridin-4-yl)-2H-1,4-benzoxazin-3(4H)-one] | 1000 to 10000 |
| COc1cc2c(c(-c3cn(C)c(=O)c4[nH]ccc34)c1)OC(c1ccccc1)C(=O)N2 (stereo not drawn) [Example 24, 6-methoxy-8-(6-methyl-7-oxo-6,7-dihydro-1H-pyrrolo[2,3-c]pyridin-4-yl)-2-phenyl-2H-1,4-benzoxazin-3(4H)-one] | ≤ 1000 |
| COc1cc2c(c(-c3cn(C)c(=O)c4[nH]ccc34)c1)OC(c1ccc(F)cc1Cl)C(=O)N2 (stereo not drawn) [Example 25, 2-(2-chloro-4-fluorophenyl)-6-methoxy-8-(6-methyl-7-oxo-6,7-dihydro-1H-pyrrolo[2,3-c]pyridin-4-yl)-2H-1,4-benzoxazin-3(4H)-one] | ≤ 1000 |
| COc1cc2c(c(-c3cn(C)c(=O)c4[nH]ncc34)c1)OC(C(C)C)C(=O)N2 (stereo not drawn) [Example 26, 2-isopropyl-6-methoxy-8-(6-methyl-7-oxo-6,7-dihydro-1H-pyrazolo[3,4-c]pyridin-4-yl)-2H-1,4-benzoxazin-3(4H)-one] | ≤ 1000 |
| COc1cc2c(c(-c3cn(C)c(=O)c4[nH]ccc34)c1)OC(C)(C)C(=O)N2 [Example 27, 6-methoxy-2,2-dimethyl-8-(6-methyl-7-oxo-6,7-dihydro-1H-pyrrolo[2,3-c]pyridin-4-yl)-2H-1,4-benzoxazin-3(4H)-one] | ≤ 1000 |
| CC(C)C1Oc2c(cc(-c3cnn(C)c3)cc2-c2cn(C)c(=O)c3[nH]ccc23)NC1=O (stereo not drawn) [Example 28, 2-isopropyl-8-(6-methyl-7-oxo-6,7-dihydro-1H-pyrrolo[2,3-c]pyridin-4-yl)-6-(1-methyl-1H-pyrazol-4-yl)-2H-1,4-benzoxazin-3(4H)-one] | ≤ 1000 |
| COc1cc2c(c(-c3cn(C)c(=O)c4[nH]ncc34)c1)OC(C)(C)C(=O)N2 [Example 29, 6-methoxy-2,2-dimethyl-8-(6-methyl-7-oxo-6,7-dihydro-1H-pyrazolo[3,4-c]pyridin-4-yl)-2H-1,4-benzoxazin-3(4H)-one] | ≤ 1000 |
| Cn1cc(-c2cccc3c2OC2(CC2)C(=O)N3)c2cc[nH]c2c1=O [Example 30, 8-(6-methyl-7-oxo-6,7-dihydro-1H-pyrrolo[2,3-c]pyridin-4-yl)spiro[1,4-benzoxazine-2,1′-cyclopropan]-3(4H)-one] | ≤ 1000 |
| Cn1cc(-c2cccc3c2OC(C)(C)C(=O)N3)c2cc[nH]c2c1=O [Example 31, 2,2-dimethyl-8-(6-methyl-7-oxo-6,7-dihydro-1H-pyrrolo[2,3-c]pyridin-4-yl)-2H-1,4-benzoxazin-3(4H)-one] | ≤ 1000 |
| Cn1cc(-c2cccc3c2NC(C)(C)C(=O)N3)c2cc[nH]c2c1=O [Example 32, 3,3-dimethyl-5-(6-methyl-7-oxo-6,7-dihydro-1H-pyrrolo[2,3-c]pyridin-4-yl)-3,4-dihydroquinoxalin-2(1H)-one] | ≤ 1000 |
| CC(C)C1Oc2c(cc(C(=O)N3CCOCC3)cc2-c2cn(C)c(=O)c3[nH]ccc23)NC1=O (stereo not drawn) [Example 33, 2-isopropyl-8-(6-methyl-7-oxo-6,7-dihydro-1H-pyrrolo[2,3-c]pyridin-4-yl)-6-(morpholin-4-ylcarbonyl)-2H-1,4-benzoxazin-3(4H)-one] | ≤ 1000 |
| CC(C)C1Oc2c(cc(C(=O)N(C)C)cc2-c2cn(C)c(=O)c3[nH]ccc23)NC1=O (stereo not drawn) [Example 34, 2-isopropyl-N,N-dimethyl-8-(6-methyl-7-oxo-6,7-dihydro-1H-pyrrolo[2,3-c]pyridin-4-yl)-3-oxo-3,4-dihydro-2H-1,4-benzoxazine-6-carboxamide] | ≤ 1000 |
| COc1cc2c(c(-c3cn(C)c(=O)c4[nH]ccc34)c1)OC(C1CCCC1)C(=O)N2 (stereo not drawn) [Example 35, 2-cyclopentyl-6-methoxy-8-(6-methyl-7-oxo-6,7-dihydro-1H-pyrrolo[2,3-c]pyridin-4-yl)-2H-1,4-benzoxazin-3(4H)-one] | ≤ 1000 |
| CC(C)C1Oc2c(cc(CO)cc2-c2cn(C)c(=O)c3[nH]ccc23)NC1=O (stereo not drawn) [Example 36, 6-(hydroxymethyl)-2-isopropyl-8-(6-methyl-7-oxo-6,7-dihydro-1H-pyrrolo[2,3-c]pyridin-4-yl)-2H-1,4-benzoxazin-3(4H)-one] | ≤ 1000 |
| COCc1cc2c(c(-c3cn(C)c(=O)c4[nH]ccc34)c1)OC(C(C)C)C(=O)N2 (stereo not drawn) [Example 37, 2-isopropyl-6-(methoxymethyl)-8-(6-methyl-7-oxo-6,7-dihydro-1H-pyrrolo[2,3-c]pyridin-4-yl)-2H-1,4-benzoxazin-3(4H)-one] | ≤ 1000 |
| CC(=O)NCc1cc2c(c(-c3cn(C)c(=O)c4[nH]ccc34)c1)OC(C(C)C)C(=O)N2 (stereo not drawn) [Example 40, N-{[2-isopropyl-8-(6-methyl-7-oxo-6,7-dihydro-1H-pyrrolo[2,3-c]pyridin-4-yl)-3-oxo-3,4-dihydro-2H-1,4-benzoxazin-6-yl]methyl}acetamide] | ≤ 1000 |
| CC(C)C1Oc2c(cc(C(N)=O)cc2-c2cn(C)c(=O)c3[nH]ccc23)NC1=O (stereo not drawn) [Example 41, 2-isopropyl-8-(6-methyl-7-oxo-6,7-dihydro-1H-pyrrolo[2,3-c]pyridin-4-yl)-3-oxo-3,4-dihydro-2H-1,4-benzoxazine-6-carboxamide] | ≤ 1000 |
| COc1cc2c(c(-c3cn(C)c(=O)c4[nH]ncc34)c1)OC(C1CCCC1)C(=O)N2 (stereo not drawn) [Example 42, 2-Cyclopentyl-6-methoxy-8-(6-methyl-7-oxo-6,7-dihydro-1H-pyrazolo[3,4-c]pyridin-4-yl)-2H-1,4-benzoxazin-3(4H)-one] | ≤ 1000 |
| CC(C)C1Oc2c(cc(S(C)(=O)=O)cc2-c2cn(C)c(=O)c3[nH]ccc23)NC1=O (stereo not drawn) [Example 44, 2-isopropyl-8-(6-methyl-7-oxo-6,7-dihydro-1H-pyrrolo[2,3-c]pyridin-4-yl)-6-(methylsulfonyl)-2H-1,4-benzoxazin-3(4H)-one] | ≤ 1000 |
| Cn1cc(-c2cc(S(C)(=O)=O)cc3c2OC(C)(C)C(=O)N3)c2cc[nH]c2c1=O [Example 45, 2,2-dimethyl-8-(6-methyl-7-oxo-6,7-dihydro-1H-pyrrolo[2,3-c]pyridin-4-yl)-6-(methylsulfonyl)-2H-1,4-benzoxazin-3(4H)-one] | ≤ 1000 |
| CC(C)C1Oc2c(-c3cn(C)c(=O)c4[nH]ccc34)cc(S(C)(=O)=O)cc2N(C)C1=O (stereo not drawn) [Example 47, 2-isopropyl-4-methyl-8-(6-methyl-7-oxo-6,7-dihydro-1H-pyrrolo[2,3-c]pyridin-4-yl)-6-(methylsulfonyl)-2H-1,4-benzoxazin-3(4H)-one] | ≤ 1000 |
| Cn1cc(-c2cc(S(C)(=O)=O)cc3c2OC(CCO)C(=O)N3)c2cc[nH]c2c1=O (stereo not drawn) [Example 48, 2-(2-hydroxyethyl)-8-(6-methyl-7-oxo-6,7-dihydro-1H-pyrrolo[2,3-c]pyridin-4-yl)-6-(methylsulfonyl)-2H-1,4-benzoxazin-3(4H)-one] | ≤ 1000 |
| CC(O)c1cc2c(c(-c3cn(C)c(=O)c4[nH]ccc34)c1)OC(C(C)C)C(=O)N2 (stereo not drawn) [Example 50, 6-(1-hydroxyethyl)-2-isopropyl-8-(6-methyl-7-oxo-6,7-dihydro-1H-pyrrolo[2,3-c]pyridin-4-yl)-2H-1,4-benzoxazin-3(4H)-one] | ≤ 1000 |
| CCS(=O)(=O)c1cc2c(c(-c3cn(C)c(=O)c4[nH]ccc34)c1)OC(C(C)C)C(=O)N2 (stereo not drawn) [Example 51, 6-(ethylsulfonyl)-2-isopropyl-8-(6-methyl-7-oxo-6,7-dihydro-1H-pyrrolo[2,3-c]pyridin-4-yl)-2H-1,4-benzoxazin-3(4H)-one] | ≤ 1000 |
| CC(C)C1Oc2c(cc(S(=O)(=O)C(C)C)cc2-c2cn(C)c(=O)c3[nH]ccc23)NC1=O (stereo not drawn) [Example 52, 2-isopropyl-6-(isopropylsulfonyl)-8-(6-methyl-7-oxo-6,7-dihydro-1H-pyrrolo[2,3-c]pyridin-4-yl)-2H-1,4-benzoxazin-3(4H)-one] | ≤ 1000 |
| CC(C)C1Oc2c(-c3cn(C)c(=O)c4[nH]ccc34)cc(S(C)(=O)=O)cc2N(CC2CC2)C1=O (stereo not drawn) [Example 53, 4-(cyclopropylmethyl)-2-isopropyl-8-(6-methyl-7-oxo-7-dihydro-1H-pyrrolo[2,3-c]pyridin-4-yl)-6-(methylsulfonyl)-2H-1,4-benzoxazin-3(4H)-one] | ≤ 1000 |
